# Laboratory results published in patent EP1412028B1, “TETRAHYDROINDOLONE DERIVATIVES LINKED TO ARYLPIPERAZINES” (Spectrum Pharmaceuticals, Inc., priority 2001, dated 2003).
# Read-outs that look alike come from different tables or passages of the source.
# How the values were obtained:
# male C-57 mice = assay: PCP disruption of pre-pulse inhibition (PPI) of the acoustic startle response; type: in vivo; conditions: for ED50: Mus musculus; for PCP Disruption of Pre-pulse Inhibition, reversal: mice, PCP 5mg/kg IP, route not given, NEO compounds as oxalate
# Method: The non-competitive NMDA receptor antagonist phencyclidine (PCP) reduces pre-pulse inhibition (PPI) of the acoustic startle response in rodents. […] For testing of PPI, male C-57 mice were assigned to five dose groups of eight animals per group, and vehicle or test compound were administered orally (PO) or subcutaneously (SC) 20 minutes prior to intraperitoneal (IP) administration of vehicle or PCP (5mg/kg). Ten minutes following PCP administration, the mice were placed into Hamilton-Kinder startle chambers and evaluation of pre-pulse inhibition procedure was performed. Following a five-minute acclimatization period with background white noise (65db), mice were exposed to five different trial types. Trials were presented […] in a quasi-random order, with randomized 5 to 25 second inter-trial intervals. Trials were: stimulus only trial (120db white noise, 50ms stimulus); two different prepulse+pulse trials in which a 20ms 5db; or 10db stimuli above a 65db background preceded the 120db pulse by 120ms; a 10dbprepulse without a 120db pulse; and a no stimulus trial, in which only the background noise was presented. Table 2 PCP Pre-pulse Inhibition
# mice = assay: Conditioned avoidance responding (CAR, active avoidance); type: in vivo; conditions: for ED50: Mus musculus
# Method: Training: Consists of 20 trials with variable inter-trial intervals (Trained to 80% Avoidance Criteria). After a one-minute acclimation period, the house light and an acoustic 90dB tone (conditioned stimuli) are presented. A response (crossing to dark compartment) within 5 seconds ends the trial and trial is recorded as avoidance response (CAR). […] To avoid shock, animals learn to move from the lighted side of the chamber to the dark side when the cue is presented (avoidance) or moved when the shock is administered (escape).Testing: Vehicle or test compounds are administered S.C. 20 minutes before the test session. (Checking for disruption of cognition and attention) Table 3. Conditioned Avoidance Responding
# Caco-2 cells [1] = system: Caco-2 cells
# Caco-2 cells [2] = assay: Membrane permeability (Papp) across Caco-2 cell monolayers; conditions: for RATIO Papp^B-A/ Papp^A-B / Papp AP- to- BL / Papp BL- to- AP: Caco-2 monolayer; for Papp AP- to- BL: apical to basolateral direction; for Papp BL- to- AP: basolateral to apical direction
# [3] = sc, read-out: PCP Disruption of Pre-pulse Inhibition - SC, 5pp ED50
# [4] = sc, read-out: PCP Disruption of Pre-pulse Inhibition - SC, 10pp ED50
# [5] = sc, read-out: Conditioned Avoidance Responding, Latency ED50
# [6] = sc, read-out: Conditioned Avoidance Responding, avoidance ED50
# [7] = mice, SC 20 minutes before the test session
# [8] = read-out: PCP Disruption of Pre-pulse Inhibition, 10pp ED50
# [9] = mice, SC 20 minutes before the test session, read-out: Conditioned Avoidance Responding, Latency ED50
# [10] = mice, SC 20 minutes before the test session, read-out: Conditioned Avoidance Responding, avoidance ED50
Papp AP- to- BL (Caco-2 cells [1]; human),SMILES,ED50 (male C-57 mice; [3]),ED50 (male C-57 mice; [4]),ED50 (mice; [5]),ED50 (mice; [6]),"Conditioned Avoidance Responding, effect on avoidance (mice; [7])","Conditioned Avoidance Responding, effect on latency (mice; [7])",EFFLUX LIMITED (Caco-2 cells [1]),PERMEABILITY (Caco-2 cells [1]),ED50 (male C-57 mice; [8]),ED50 (mice; [9]),"Conditioned Avoidance Responding, effect on escape or avoidance (mice; [7])",RATIO Papp^B-A/ Papp^A-B (Caco-2 cells [2]),Papp AP- to- BL (Caco-2 cells [2]),Papp BL- to- AP (Caco-2 cells [2]),"PCP Disruption of Pre-pulse Inhibition, reversal (male C-57 mice)","Conditioned Avoidance Responding, overall effect (mice; [7])",ED50 (mice; [10]),"EFFLUX LIMITED (Caco-2 cells [2]; Caco-2, Yes/No judgement)","ED50 (male C-57 mice; read-out: PCP Disruption of Pre-pulse Inhibition, 5pp ED50)"
–,"Cc1nc2n(c(=O)c1CCN1CCC(c3noc4cc(F)ccc34)CC1)CCCC2 [Risperidone, risperidone, reference compound]",0.036 mg/kg,0.036 mg/kg,0.26 mg/kg,0.19 mg/kg,Significant reduction in avoidance,Significant increase in latency,–,–,–,–,–,–,–,–,–,–,–,–,–
17.3±2.3 cm/s x 10^6,"CC(C)NCC(O)COc1cccc2ccccc12 (stereo not drawn) [Propranolol, reference compound]",–,–,–,–,–,–,No,High,–,–,–,–,–,–,–,–,–,–,–
–,"O=C1CCCc2c1ccn2CCN1CCN(c2cccc(Cl)c2)CC1 [NEO-376, 1-{2-[4-(3-Chloro-phenyl)-piperazin-1-yl]-ethyl}-1,5,6,7-tetrahydro-indol-4-one]",0.79 mg/kg,0.79 mg/kg,–,–,–,significant increase in latency,No,High,0.79 mg/kg,17.5 mg/kg,No effect on escape or avoidance,0.43,20.4±1.8 cm/s x 10^6,9.4±0.3 cm/s x 10^6,–,–,–,–,–
–,"O=C1CCCc2c1ccn2CCCN1CCN(c2cccc(C(F)(F)F)c2)CC1 [NEO-356, 1-{3-[4-(3-Trifluoromethylphenyl)piperazin-1-yl]propyl}-1,5,6,7-tetrahydroindol-4-one]",2.31 mg/kg,–,–,–,–,–,No,High,–,–,–,0.41,21.5±2.9 cm/s x 10^6,8.8±0.3 cm/s x 10^6,No reversal,No effect,–,–,–
–,"COc1ccccc1N1CCN(CCn2ccc3c2CCCC3=O)CC1 [NEO-377, 1-{2-[4-(2-Methoxyphenyl)-piperazin-1-yl]-ethyl}-1,5,6,7-tetrahydro-indol-4-one]",2.31 mg/kg,1.12 mg/kg,–,–,Significant reduction in avoidance,Significant increase in latency,No,High,2.3 mg/kg,3 mg/kg,–,0.60,26.0±1.8 cm/s x 10^6,15.5±2.9 cm/s x 10^6,–,–,7.57 mg/kg,–,–
–,"O=C1CCCc2c1ccn2CCCCN1CCN(c2cccc(C(F)(F)F)c2)CC1 [NEO-392, 1-{4-[4-(3-Trifluoromethylphenyl)piperazin-1-yl]-butyl}-1,5,6,7-tetrahydroindol-4-one]",0.23 mg/kg,0.23 mg/kg,–,–,Significant reduction in avoidance,Significant increase in latency,No,High,1.12 mg/kg,3.25 mg/kg,–,0.58,27.1±1.1 cm/s x 10^6,15.7±1.3 cm/s x 10^6,–,–,4.93 mg/kg,–,–
–,"O=C1CCCc2c1ccn2CCCN1CCN(c2ncccn2)CC1 [NEO-381, 1-{3-[4-(2-Pyrimidyl)piperazine-1-yl]propyl}-1,5,6,7-tetrahydroindol-4-one]",0.79 mg/kg,3.58 mg/kg,–,–,–,–,No,High,–,–,–,0.77,32.9±9.6 cm/s x 10^6,25.3±0.7 cm/s x 10^6,No reversal,No effect,–,–,–
–,"CN1CCN(C2=Nc3cc(Cl)ccc3Nc3ccccc32)CC1 [Clozapine, clozapine, reference compound]",2.87 mg/kg,3 mg/kg,3.03 mg/kg,6.3 mg/kg,–,–,–,–,–,–,–,0.65,15.3±0.7 cm/s x 10^6,7.4±1.1 cm/s x 10^6,–,–,–,No,–
–,"O=C1CCCc2c1ccn2CCN1CCN(c2cccc(C(F)(F)F)c2)CC1 [NEO-359, 1-{2-[4-(3-Trifluoromethylphenyl)piperazine-1-yl]ethyl}-1,5,6,7-tetrahydroindol-4-one]",3.58 mg/kg,0.79 mg/kg,–,–,–,Significant decrease in latency,No,High,–,100 mg/kg,No effect on escape or avoidance,0.32,24.0±3.9 cm/s x 10^6,7.6±0.5 cm/s x 10^6,No reversal,–,–,–,–
–,"COc1ccccc1N1CCN(CCCn2ccc3c2CCCC3=O)CC1 [NEO-370, 1-{3-[4-(2-Methoxyphenyl)piperazine-1-yl]propyl}-1,5,6,7-tetrahydroindol-4-one]",0.79 mg/kg,0.79 mg/kg,–,–,Significant reduction in avoidance,Significant increase in latency,No,High,0.96 mg/kg,3.25 mg/kg,–,0.67,32.1±8.1 cm/s x 10^6,20.0±3.4 cm/s x 10^6,–,–,6.2 mg/kg,–,0.96 mg/kg
–,"O=C1CCCc2c1ccn2CCCN1CCN(c2cccc(Cl)c2)CC1 [NEO-363, 1-{3-[4-(3-Chlorophenyl)piperazine-1-yl]propyl}-1,5,6,7-tetrahydroindol-4-one]",2.3 mg/kg,2.3 mg/kg,–,–,–,–,No,High,3.1 mg/kg,–,–,0.75,18.0±0.7 cm/s x 10^6,13.1±1.1 cm/s x 10^6,–,No effect,–,–,–
